# Assay results from patent US20110318422A1, “TARGETED ACTIVE AGENT DELIVERY SYSTEM BASED ON CALCIUM PHOSPHATE NANOPARTICLES” (priority 2007, published 2011).
# Several values for one entry are separate records, joined by “and”; a condition that tells them apart may be missing. Identical values can stand only once.
# How the values were obtained:
# [1] = tested on: ME-180 tumors; assay: Chemoradiotherapy of intradermal ME-180 tumors in mice; type: in vivo, athymic Ncr-nu/nu mice; conditions: with single 8 Gy radiation; conjugate IT 10 mg/kg, cisplatin IP 7 mg/kg
# Method: Chemoradiotherapy of ME-180 Tumors with intratumoral calcium phosphate particle/cisplatin conjugate was performed. Primary tumors were initiated on the right flank in seventy athymic Ncr-nu/nu mice, 5-7 weeks old, by intradermal injections of 2.25×10^6 ME-180 cells, a human cervical cancer line. Six treatment groups were established for the study and included an untreated control, 7 mg/kg intraperitoneal (IP) cisplatin, and intratumoral (IT) calcium phosphate particle/cisplatin conjugate at a dose of 10 mg/kg. These three treatment groups were repeated in combination with a single dose of radiation at 8 Gy (Varian 2100 C), for a total of six treatment groups. Mice were entered into treatment groups once the intradermal ME-180 tumors were 100 mm^3±10% in size. A minimum of 5 mice was placed into each group. The conjugate was injected via an 18-gauge needle directly into the intradermal tumor. Tumor length and width were measured daily and the volume determined (Tumor volume=(width)^2×length×0.4). Mouse weight was also recorded daily as weight loss is an indicator of cisplatin side effects. Statistical analysis, a one-way ANOVA and Newman-Kuels Comparison Test, was applied to the tumor volumes on day 15 after treatment.
# [2] = tested on: A2780cis human ovarian carcinoma cell line; assay: In vitro cytotoxicity, CellTiter96 AQueous One proliferation assay (Example 2); type: cell-based; conditions: two days exposure, conjugate loading 112 μg/mg, listed as free active agent
# Method: For in vitro cytotoxicity activity studies, the cisplatin-resistant cell line was used: A2780cis human ovarian carcinoma cell line (Sigma, 93112517) and cultured according to supplier's descriptions. Briefly, cells were cultured in RPMI1640 medium, supplemented with 2 mM Glutamine and 10% Fetal Bovine Serum (FBS) in a humid atmosphere at 37° C. and 5% CO2. Cells were supplemented with 1 μm cisplatin to the culture media every 2-3 passages, post-attachment. […] Three days were necessary to achieve a cisplatin concentration high enough to obtain an IC50 value. […] To confirm that the particle conjugates were diluted evenly across the wells, measurements of the total Pt concentration in all the wells of the active agent master plate were made by AAS after dissolving the conjugate solutions in dilute HCl. […] Absorbance values were converted to IC50 values using the four parameter logistic equation: Y=(Amax-Amin)/1+(x/IC50)^n+Amin Eq. 2 where Y=observed absorbance • Amax=absorbance of control cells • Amin=absorbance of cells in presence of highest agent concentration • x=active agent concentration (μg/ml) • n=slope of curve Samples were analyzed for statistically significant differences using the Student's T-test (P<0.05).
# [3] = Lymph node accumulation after footpad injection (Pt by graphite furnace AAS); type: in vivo, BALB/c mice; conditions: 20 μl footpad injection; nodes at 30 min, 1, 4, 7 days
# Method: Lymph node accumulation studies were conducted using nine BALB/c mice, 5-7 weeks old injected with 20 μl of calcium phosphate particle/cisplatin conjugate (40 mg/ml) in both rear footpads. Six control mice received 20 μl footpad injections of cisplatin solution only. Draining lymph nodes, as determined by lymphazurin injections (popliteal, inguinal, and lumbar) were collected at 30 min, 1 day, 4 day and 7 days and analyzed for Pt content by graphite furnace atomic absorption spectroscopy. Use of calcium phosphate particle/cisplatin conjugate leads to sustained elevated levels of cisplatin in the draining nodes.
# [4] = tested on: A2780cis human ovarian carcinoma cell line; assay: In vitro cytotoxicity, CellTiter96 AQueous One proliferation assay (Example 1); type: cell-based; conditions: A2780cis cells; sample added to cells; Example 1 particles
# Method: In one set of in vitro cytotoxicity activity studies, the cisplatin-resistant A2780cis human ovarian carcinoma cell line was used. A2780cis human ovarian carcinoma cell line (Sigma, 93112517) was cultured according to supplier's descriptions. IC50 values (50% inhibitory concentration) were determined with the CellTiter96® AQueous One (Promega) colorimetric proliferation assay. The CellTiter96® AQueous One (Promega) colorimetric proliferation assay was used to determine the IC50 value (50% inhibitory concentration) evaluated from 12 two-fold dilutions of: (a) cisplatin (200 μg cisplatin /mL) in 0.9% saline (free active agent), (b) 1.5 mg of conjugates in 1.75 ml PBS, (c) 1.5 mg of hydroxyapatite in 1.75 ml of cisplatin solution. Control wells containing the hydroxyapatite only were used since the hydroxyapatite interferes with the CellTiter96 assay. Absorbance values from the hydroxyapatite only were subtracted from the conjugate data in order to determine the IC50 values. The cytotoxicity assay was conducted as follows: twenty-four hours after seeding 2000 A2780cis cells in […] of media on 96 well plates, […] PBS, or PBS with drug or conjugates was added to the wells.
smiles,measurement,setting,value
N.N.[Cl][Pt][Cl] [cisplatin],tumors completely regressed,[1],⅙
same,"IC50, direct addition study",[2],6.297 ± 0.43 µg/mL and 6.3 µg/mL
same,duration of cisplatin levels in the draining popliteal node,[3],barely detected after one day
same,IC50 (50% inhibitory concentration),[4],6.07 ± 0.226 µg/mL
